Literature values as cited in US7390502B2, “SN-38 lipid complexes and their methods of use” (NeoPharm, Inc., priority 2000, dated 2008).

Assays:
[1] = system: topoisomerase I purified from human and rodent tumor cell lines; conditions: versus irinotecan; enzyme purified from human and rodent tumor cell lines
[2] = versus irinotecan
[3] = aqueous solutions / water
[4] = tends to precipitate into aqueous phase

Which “potency relative to irinotecan as an inhibitor of topoisomerase I” value [1] does the source give for CCc1c2c(nc3ccc(O)cc13)-c1cc3c(c(=O)n1C2)COC(=O)[C@]3(O)CC [SN-38, 7-ethyl-10-hydroxycamptothecin] here?
The value was “approximately 1000 times”.

And the “potency relative to irinotecan in in vitro cytotoxicity assays” value [2]?
Its value is “up to 2,000 fold”.

What about the “solubility in aqueous solutions” value [3] of the same molecule?
The value was “exceedingly insoluble”.

What about the “affinity for lipid membranes” value [4] of the same molecule?
Its value is “low affinity”.
